Laboratory results reported in patent US10196359B2, “2-alkyloxy benzene formyl arylamine compound and pharmaceutical use thereof” (FUDAN UNIVERSITY, priority 2014, dated 2019).
Where two headings read alike, the source gives them in different places.

Biological target: T1, Sphingomyelin Synthase 2 (SMS2) (Homo sapiens, UniProt Q8NHU3)
T1 construct: made in house; used as homogenate
T1 sequence (Q8NHU3 1-365): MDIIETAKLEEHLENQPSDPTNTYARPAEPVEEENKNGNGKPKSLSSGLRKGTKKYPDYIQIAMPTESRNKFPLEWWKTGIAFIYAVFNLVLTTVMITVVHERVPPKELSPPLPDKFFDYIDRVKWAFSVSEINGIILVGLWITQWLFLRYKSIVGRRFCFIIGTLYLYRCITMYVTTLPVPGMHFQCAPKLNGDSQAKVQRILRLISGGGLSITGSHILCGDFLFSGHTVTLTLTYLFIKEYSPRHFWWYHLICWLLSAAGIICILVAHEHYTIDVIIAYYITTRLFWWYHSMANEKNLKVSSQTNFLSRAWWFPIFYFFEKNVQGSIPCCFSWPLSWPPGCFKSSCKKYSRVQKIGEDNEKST
Assay: In vitro inhibition of sphingomyelin synthase 2, HPLC fluorogenic quantitative detecting method (C6-NBD-ceramide to C6-NBD-SM, SMS2 high-expressed insect cell homogenate)
Format: biochemical
Conditions: for IC50: read-out: SMS2 Median Inhibitory Concentration IC50; for inhibition at 5 µM / inhibition at 50 µM / inhibition at 10 µM: read-out: inhibition rate
Description: The second aim of the present invention is to show the use of 2-alkoxy benzene formyl arylamines in preparing SMS small-molecule inhibitors. This invention evaluate SMS inhibitory activity of 2-alkoxy benzene formyl arylamines as scheme I through HPLC fluorogenic quantitative detecting method reported (Xiaodong Deng; Hong Sun; et al. Analytical Letters, 2012, 45:12, 1581-1589), which can make it possible to calculate the catalytic activity difference of SMS treated with inhibitors or not through content changes of NBD-ceramide and NBD-sphingomyelin.
9. The organic solvents were purchased from Shanghai Sinopharm Reagent Company; methanol is of HPLC grade; water is ultrapure water filtrated by Milli-Q pump and deionized and ultrafiltrated by 0.22 μm ultrafiltration membrane. Other biological supplies are purchased in domestic companies. 10. Preparation of SMS homogenate extraction buffer (Buffer1): (50 mM Tris hydrochloride, pH 7.4, 5% anhydrous sucrose, 1 mM ethylenediaminetetraacetic acid) 1.2114 g tris(hydroxymethyl)aminomethane hydrochloride (Tris-HCl) was dissolved in 100 ml distilled water. Then 84 ml 0.1 mol/L hydrochloric acid was added. Constant volume to 200 ml. Finally, 10 g sucrose and 58.45 mg EDTA were dissolved in the mixture. 11. Preparation of SMS test buffer […]: (100 mM Hepes, 30 mM MnCl2, 3% fatty acid free BSA): 1.1916 g 4-(2-hydroxyethyl)-1-peperazineethanesulfonic acid (Hepes), 0.2969 g MnCl2.4H2O and 0.3 g fatty acid free bovine serum albumin were dissolved in distilled water then constant volume to 50 ml. 12. Preparation of under tested compound solution: To each accurate weighed compound for 1˜2 mg, an appropriate amount of DMSO was added to formulate a stock solution of 6 mM precisely. To a certain volume of the DMSO stock solution of the test compound, the appropriate volume of DMSO was added to dilute the solution to the desired concentration. 13. SMS2 high-expressed insect cell homogenate was prepared by Xu Yanhui group from Institutes of Biomedical Sciences, Fudan University. Part 1 Activity Assay for Inhibition of 2-Alkoxy-Benzoyl Aromatic Amines to Sphingomyelin Synthase 2
250 μL tri-distilled water, 30 μL Buffer2, 4 μL SMS2 high-expressed insect cell homogenate (total protein content is 0.5 μg/μL) and 10 μL DMSO or DMSO solution of under tested compound were added to 1.5 mL eppendorf tube, vortex mixed for 30 seconds and then incubated in a 37° C. water bath for 0.5 h. 3 μL ethanol solution of DMPC (40 mM) and 3 μL ethanol solution of C6-NBD-Ceramide (1.16 mM) were added, vortex mixed for 30 seconds, and then incubate in a 37° C. water bath for 2.0 hours. To it 600 μL anhydrous ethanol was added vortex mixed for 1 minute and centrifuged 10 minutes in 10000 rpm and 600 μL supernatant was taken out and stored at 4° C. for HPLC analysis.
Using the same HPLC fluorogenic quantitative detecting method as reference (Xiaodong Deng; Hong Sun; et al. Analytical Letters, 2012, 45:12, 1581-1589) to analysize samples obtained above. Analysize and record peak areas of C6-NBD-SM (Asm) and C6-NBD-Ceramide (Acer) of each sample from blank group, positive control group (compound D2) and under tested compound group. The data were parallelly determined for 3 times. Calculate inhibition rate from the formula below: […]
The DMSO stock solution of under tested compound (6 mM) was diluted stepwise into five concentration gradient. 10 μL solution of each concentration was added into the trial system to prepare samples with the method mentioned in the first step of application case 12. The Asm values of the five concentration solution of tested compound were measured, and the inhibition rate under the five concentration were calculated and fitted to obtain median inhibitory concentration (IC50). Each compound was measured three parallel groups. SMS2 median inhibitory concentration of Scheme I-1˜I-60 are listed below in Table 1: […]

[1] = five concentrations, three parallel groups, experimental value

## 2-(2-cyano-benzyloxy)-N-(pyridin-3-yl) benzamide [Scheme I-6]
At 50 μM
  inhibition rate: 50.0%
[1]
  IC50: 31800 nM

## 2-(3-bromo-benzyloxy)-N-(pyridin-3-yl) benzamide [Scheme I-8]
At 50 μM
  inhibition rate: 67.1%
[1]
  IC50: > 50000 nM

## 2-(3-cyano-benzyloxy)-N-(pyridin-3-yl) benzamide [Scheme I-4]
At 50 μM
  inhibition rate: 66.0%
[1]
  IC50: 60700 nM

## 2-(4-bromo-benzyloxy)-N-(pyridin-3-yl) benzamide [Scheme I-9]
At 50 μM
  inhibition rate: 14.7%
[1]
  IC50: > 100000 nM

## 2-((2,5-dichloro) benzyloxy)-N-(pyridin-3-yl) benzamide [Scheme I-33]
At 10 μM
  inhibition rate: 87.9%
[1]
  IC50: 1000 nM

## 2-((2,5-dimethoxy) benzyloxy)-N-(pyridin-3-yl) benzamide [Scheme I-25]
At 10 μM
  inhibition rate: 78.9%
[1]
  IC50: 2800 nM

## 2-((2,6-dimethyl) benzyloxy)-N-(pyridin-3-yl) benzamide [Scheme I-29]
At 10 μM
  inhibition rate: 88.8%
[1]
  IC50: 900 nM

## 2-((2-benzyloxy) benzyloxy)-N-(pyridin-3-yl) benzamide [Scheme I-26]
At 10 μM
  inhibition rate: 76.9%
[1]
  IC50: 2200 nM

## 2-((2-chloro-5-fluoro) benzyloxy)-N-(pyridin-3-yl) benzamide [Scheme I-16]
At 5 μM
  inhibition rate: 75.7%
[1]
  IC50: 700 nM

## 2-((2-ethoxy) benzyloxy)-N-(pyridin-3-yl) benzamide [Scheme I-30]
At 10 μM
  inhibition rate: 86.3%
[1]
  IC50: 1200 nM

## 2-((2-ethyl) benzyloxy)-N-(pyridin-3-yl) benzamide [Scheme I-27]
At 5 μM
  inhibition rate: 78.4%
[1]
  IC50: 900 nM

## 2-((2-methoxy-5-chloro) benzyloxy)-N-(pyridin-3-yl) benzamide [Scheme I-31]
At 10 μM
  inhibition rate: 92.4%
[1]
  IC50: 700 nM

## 2-((2-nitro) benzyloxy)-N-(pyridin-3-yl) benzamide [Scheme I-12]
At 50 μM
  inhibition rate: 35.5%
[1]
  IC50: > 50000 nM

## 2-((3-methoxy) benzyloxy)-N-(pyridin-3-yl) benzamide [Scheme I-23]
At 10 μM
  inhibition rate: 59.8%
[1]
  IC50: 5700 nM

## 2-((4-cyano) benzyloxy)-N-(pyridin-3-yl) benzamide [Scheme I-15]
At 50 μM
  inhibition rate: 15.0%
[1]
  IC50: > 100000 nM

## 2-((4-ethyl) benzyloxy)-N-(pyridin-3-yl) benzamide [Scheme I-28]
At 10 μM
  inhibition rate: 10.1%
[1]
  IC50: > 100000 nM

## 2-((4-methyl) benzyloxy)-N-(pyridin-3-yl) benzamide [Scheme I-14]
At 50 μM
  inhibition rate: 69.0%
[1]
  IC50: > 25000 nM

## 2-((4-nitro) benzyloxy)-N-(pyridin-3-yl) benzamide [Scheme I-13]
At 50 μM
  inhibition rate: 11.8%
[1]
  IC50: > 100000 nM

## 2-((4-trifluoromethyl) benzyloxy)-N-(pyridin-3-yl) benzamide [Scheme I-20]
At 10 μM
  inhibition rate: 3.9%
[1]
  IC50: > 100000 nM

## 2-((5-chloro-2-heptyloxy) benzyloxy)-N-(pyridin-3-yl) benzamide [Scheme I-40]
At 5 μM
  inhibition rate: 87.1%
[1]
  IC50: 400 nM

## 2-((5-chloro-hexyloxy) benzyloxy)-N-(pyridin-3-yl) benzamide [Scheme I-39]
At 5 μM
  inhibition rate: 85.5%
[1]
  IC50: 500 nM

## 2-((5-fluoro-2-methyl) benzyloxy)-N-(pyridin-3-yl) benzamide [Scheme I-21]
At 10 μM
  inhibition rate: 84.7%
[1]
  IC50: 700 nM

## O=C(Nc1cccnc1)c1ccccc1OCc1ccccc1F [Scheme I-1, 2-(2-fluoro-benzyloxy)-N-(pyridin-3-yl) benzamide]
  IC50: 3500 nM
  inhibition at 5 µM: 53.8%

## O=C(Nc1cccnc1)c1ccccc1OCc1cccc(F)c1 [Scheme I-2, 2-(3-fluoro-benzyloxy)-N-(pyridin-3-yl) benzamide]
  IC50: 1600 nM
  inhibition at 5 µM: 69.3%

## O=C(Nc1cccnc1)c1ccccc1OCc1cccc([N+](=O)[O-])c1 [Scheme I-3, 2-(3-nitro-benzyloxy)-N-(pyridin-3-yl) benzamide]
At 50 μM
  inhibition at 50 µM: 64.6%
[1]
  IC50: > 50000 nM

## COc1ccc(COc2ccccc2C(=O)Nc2cccnc2)cc1 [Scheme I-5, 2-((4-methoxy)benzyloxy)-N-(pyridin-3-yl) benzamide]
At 50 μM
  inhibition at 50 µM: 23%
[1]
  IC50: > 100000 nM

## O=C(Nc1cccnc1)c1ccccc1OCc1cccc(Cl)c1 [Scheme I-7, 2-(3-chloro-benzyloxy)-N-(pyridin-3-yl) benzamide]
  IC50: 1400 nM
  inhibition at 5 µM: 70.6%

## Cc1cccc(COc2ccccc2C(=O)Nc2cccnc2)c1 [Scheme I-10, 2-((3-methyl)benzyloxy)-N-(pyridin-3-yl) benzamide]
At 50 μM
  inhibition at 50 µM: 69.5%
[1]
  IC50: > 25000 nM

## Cc1ccccc1COc1ccccc1C(=O)Nc1cccnc1 [Scheme I-11, 2-((2-methyl)benzyloxy)-N-(pyridin-3-yl) benzamide]
  IC50: 1500 nM
  inhibition at 5 µM: 71.3%

## O=C(Nc1cccnc1)c1ccccc1OCc1c(Cl)cccc1Cl [Scheme I-17, 2-((2,6-dichlorophenyl)benzyloxy)-N-(pyridin-3-yl) benzamide]
At 5 μM
  inhibition at 5 µM: 77.2%
[1]
  IC50: 700 nM

## O=C(Nc1cccnc1)c1ccccc1OCc1cccc(Cl)c1F [Scheme I-18, 2-((2-fluoro-3-chloro)benzyloxy)-N-(pyridin-3-yl) benzamide]
  IC50: 3100 nM
  inhibition at 5 µM: 55.2%

## CCOC(=O)c1ccc(COc2ccccc2C(=O)Nc2cccnc2)cc1 [Scheme I-19, 4-((2-(pyridin-3-ylcarbamoyl)phenoxy)methyl) benzene carboxylic acid ethyl ester]
At 10 μM
  inhibition at 10 µM: 2.9%
[1]
  IC50: > 100000 nM

## CCOC(=O)COc1cccc(COc2ccccc2C(=O)Nc2cccnc2)c1 [Scheme I-22]
At 10 μM
  inhibition at 10 µM: 15.3%
[1]
  IC50: > 100000 nM

## COc1ccccc1COc1ccccc1C(=O)Nc1cccnc1 [Scheme I-24, 2-((2-methoxy)benzyloxy)-N-(pyridin-3-yl) benzamide]
At 10 μM
  inhibition at 10 µM: 89.4%
[1]
  IC50: 800 nM

## O=C(Nc1cccnc1)c1ccccc1OCc1c(F)cccc1Cl [Scheme I-32, 2-((2-chloro-6-fluoro)benzyloxy)-N-(pyridin-3-yl) benzamide]
  IC50: 1500 nM
  inhibition at 10 µM: 82.3%

## O=C(Nc1cccnc1)c1ccccc1OCc1ccccc1OCCCCCl [Scheme I-34, 2-(2-(4-chlorobutoxy)benzyloxy)-N-(pyridin-3-yl) benzamide]
At 10 μM
  inhibition at 10 µM: 85.5%
[1]
  IC50: 1400 nM

## O=C(Nc1cccnc1)c1ccccc1OCc1ccccc1OCCCCCCl [Scheme I-35, 2-(2-(5-chloro-pentoxy)benzyloxy)-N-(pyridin-3-yl) benzamide]
At 10 μM
  inhibition at 10 µM: 91.3%
[1]
  IC50: 700 nM

## O=C(Nc1cccnc1)c1ccccc1OCc1ccccc1OCCCCCCCl [Scheme I-36, 2-(2-(6-Chloro-hexyloxy)benzyloxy)-N-(pyridin-3-yl) benzamide]
At 10 μM
  inhibition at 10 µM: 91.5%
[1]
  IC50: 500 nM
